Tests used:
[1] = target: T1, interaction between PTP1B and the SH3-2 domain of NCK1 (Homo sapiens, UniProt P16333); test: GST pull-down / co-immunoprecipitation screen for disruption of the PTP1B / NCK1 SH3-2 interaction; assay type: binding; conditions: peptide 1 mM; for disruption of the interaction between PTP1B and the SH3-2 domain of NCK1: GST-SH3-2 and FLAG-PTP1B
T1 construct: FLAG-PTP1B from HEK293 lysate
Method: FIG. 4A depicts an immunoblot showing that certain peptides prevent co-immunoprecipitation of FLAG-PTP1B and GST-tagged SH3-2 domain of NCK1 (“SH3”). GST was fused to full-length NCK1 (“Nck1”), all SH3 domains of NCK1 (“SH3”), the NCK1 SH2 domain (“SH2”), the NCK1 SH3-1 domain (“SH3 1”), the NCK1 SH3-2 domain (“SH3 2”), and the NCK1 SH3-3 domain (“SH3 3”). GST alone was used as a negative control (“GST”). FLAG-PTP1B was incubated with the indicated bead-bound GST-fusion protein, and FLAG-PTP1B was detected in the IP eluate by western blotting. The outlined region in column “SH3-2” identifies the PTP1B band. For GST-SH3-2 and FLAG-PTP1B, the mixture was further incubated with one of peptides A through K, (1 mM). FIG. 4B depicts an input control for the immunoblot. FIG. 4C depicts a Ponceau stain for the immunoblot, which was used to measure total protein.
Construction and Purification of GST constructs: Human NCK1 (NM_006153) human cDNA was obtained (Origene, MD, USA). GST fusion constructs (GST-only control, GST full length NCK1, GST all SH3 domains of NCK1, GST SH2 domain of NCK1, GST SH3-1, GST SH3-2 and GST SH3-3) were amplified, double digested (EcoRI and XhoI, New England Biolabs), ligated in to pGEX-6P-2 vector (#M2200S, New England Biolabs; #GE28-9546-50, Merck), transformed in to DH5α E. coli cells (#C2987H, NEB) and purified using a plasmid preparation kit according to manufacturer's instructions (#T1010, New England Biolabs). GST-constructs were transformed in to BL21-Gold E. coli cells (#230134, Agilent), and GST-fusion proteins were produced, extracted, and bound to GST beads as described in Example 1. Beads were washed three times with STE buffer and stored at 4 °C.
GST pull-down experiments for compounds screening against FLAG PTP1B interaction with SH3-2 domain of NCK1. GST-bound agarose beads of SH3-2 domain were incubated overnight at 4 °C with lysates from HEK293 cells overexpressing FLAG PTP1B protein, to gether with various peptide compounds (1 mM) to screen for inhibition of PTP1B-NCK1 binding. Following overnight incubation, agarose beads were three times washed in STE buffer, and proteins were eluted in SDS-Laemmli buffer by heating at 95 °C for 10 min. Samples were spun at 12,000 rpm for 2 min, and the liquid fraction was transferred in to 1 mL Eppendorf tubes. Proteins were separated and detected by chemiluminescent Western Blotting (PEQLAB, Germany) using anti-FLAG HRP antibody (#A8592, Sigma).

[2] = Microsomal metabolic stability; assay type: in vitro ADME; conditions: human liver microsomes 0.5 mg/mL, 1 μM, 37 °C
Method: Microsomal Metabolic Stability (human liver microsomes): Human liver microsomes (final protein concentration 0.5 mg/mL), 0.1 M phosphate buffer pH 7.4 and test compound MD20 (final substrate concentration 1 μM; final DMSO concentration 0.25%) were pre-incubated at 37 °C prior to the addition of NADPH (final concentration 1 mM) to initiate the reaction. A minus cofactor control incubation was included for each compound tested where 0.1 M phosphate buffer pH 7.4 was substituted for NADPH (“minus NADPH”).
Each compound was incubated for 0, 5, 15, 30 and 45 min. The control (minus NADPH) was incubated for 45 min only. The reactions were stopped by transferring incubate in to acetonitrile at the appropriate time points, in a 1:3 ratio. The termination plates were centrifuged at 3,000 rpm for 20 min at 4 °C to precipitate the protein. Following protein precipitation, the sample supernatants were combined in cassettes of up to 4 compounds, internal standard was added and samples were analyzed using Cyprotex generic LC-MS/MS conditions. The time point at which 30-70% of parent had degraded was then investigated at 3 different levels of metabolite profiling and/or identification. The intrinsic clearance (CLint) of the test compound was calculated.

Row | Substance | binding to full-length NCK1 (concluded from pull-down) [1] | disruption of the interaction between PTP1B and the SH3-2 domain of NCK1 [1] | intrinsic clearance (CL int) [2]
1 | Ac-PRPPKR-NH2 [MD20, Ac-PRPPKR-NH2] | bind to full-length NCK1, specifically, at SH3-2 domain | disrupt the interaction between PTP1B and the SH3-2 domain of NCK1 | 4.90
2 | Ac-PPPEHIPPPPRPPKR-NH2 [MD17] | bind to full-length NCK1, specifically, at SH3-2 domain | disrupt the interaction between PTP1B and the SH3-2 domain of NCK1 | 
